Among the data in patent publication US20070049593A1 (priority 2004, published 2007) are IC50 values, retold here.

The target in the assay is T1, HCV polymerase (Hepatitis C virus genotype 1b, UniProt P26663).
T1 construct: a region encoding NS5B (J Virol 1991 March, 65(3), 1105-13, 544 amino acids after deletion of 47 amino acids on the C-terminal); 6xHis (C); made in house; host or cells: Escherichia coli
In words: biochemical. Also noted: species or system HCV BK strain. In a few lines: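 Recombinant HCV BK-strain NS5B (C-terminal 47 aa deleted, His6-tagged, E. coli), 0.5 μg/ml, run with 5 μg/ml in vitro-transcribed RNA template (polyU/3′X), ATP/GTP/CTP 50 μM, UTP 2 μM plus [3H]UTP, pH 7.5, 25° C, 90 min. TCA-precipitated RNA counted by scintillation; IC50 from activity with vs without compound.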

Structures are written as SMILES. Where a name gives a salt, the structure may show the parent alone.

T1 sequence (P26663 2420-2963): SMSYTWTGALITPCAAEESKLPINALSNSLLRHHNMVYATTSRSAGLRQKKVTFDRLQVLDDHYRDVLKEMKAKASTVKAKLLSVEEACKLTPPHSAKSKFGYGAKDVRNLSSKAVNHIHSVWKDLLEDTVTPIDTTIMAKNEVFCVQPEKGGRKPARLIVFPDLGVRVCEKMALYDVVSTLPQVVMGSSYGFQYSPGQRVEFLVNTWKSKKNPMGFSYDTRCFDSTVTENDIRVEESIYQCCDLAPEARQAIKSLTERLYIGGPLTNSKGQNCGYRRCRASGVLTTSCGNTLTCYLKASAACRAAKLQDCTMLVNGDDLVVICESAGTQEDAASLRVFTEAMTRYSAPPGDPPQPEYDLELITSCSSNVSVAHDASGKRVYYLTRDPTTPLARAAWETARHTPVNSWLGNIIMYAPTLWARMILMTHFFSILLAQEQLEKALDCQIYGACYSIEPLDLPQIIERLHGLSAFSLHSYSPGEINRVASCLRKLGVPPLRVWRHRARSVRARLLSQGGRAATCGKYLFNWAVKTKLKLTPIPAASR

Take `CCN1CCN(CCOc2cccc3c2OCCn2c-3c(C3CCCCC3)c3ccc(C(=O)O)cc32)CC1` [Example 2-456, 12-cyclohexyl-4-[2-(4-ethylpiperazin-1-yl)ethoxy]-6,7-dihydro-5-oxa-7a-azadibenzo[a,e]azulene-9-carboxylic acid dihydrochloride]: the IC50 is under 100 nM.
In turn, `CC(C)(C)OC(=O)N1CCC(CCOc2cccc3c2OCCn2c-3c(C3CCCCC3)c3ccc(C(=O)O)cc32)CC1` [Example 2-457, 4-[2-(1-tert-butoxycarbonylpiperidin-4-yl)ethoxy]-12-cyclohexyl-6,7-dihydro-5-oxa-7a-azadibenzo[a,e]azulene-9-carboxylic acid] registered an IC50 of under 100 nM.
In the case of `O=C(O)c1ccc2c(C3CCCCC3)c3n(c2c1)CCOc1c(OCCC2CCNCC2)cccc1-3` [Example 2-458, 12-cyclohexyl-4-[2-(piperidin-4-yl)ethoxy]-6,7-dihydro-5-oxa-7a-azadibenzo[a,e]azulene-9-carboxylic acid monohydrochloride], the IC50 was under 100 nM.
With `CN1CCC(CCOc2cccc3c2OCCn2c-3c(C3CCCCC3)c3ccc(C(=O)O)cc32)CC1` [Example 2-459, 12-cyclohexyl-4-[2-(1-methylpiperidin-4-yl)ethoxy]-6,7-dihydro-5-oxa-7a-azadibenzo[a,e]azulene-9-carboxylic acid monohydrochloride], the half-maximal inhibitory concentration (IC50) is under 100 nM.
Molecule `O=C(O)c1ccc2c(C3CCCCC3)c3n(c2c1)CCOc1c(OCCCN2CCCCC2)cccc1-3` [Example 2-460, 12-cyclohexyl-4-[3-(piperidin-1-yl)propoxy]-6,7-dihydro-5-oxa-7a-azadibenzo[a,e]azulene-9-carboxylic acid monohydrochloride] gave an IC50 of under 100 nM.
Molecule `O=C(O)c1ccc2c(C3CCCCC3)c3n(c2c1)CCOc1c(OCCN2CCOCC2)cccc1-3` [Example 2-462, 12-cyclohexyl-4-[2-(morpholin-4-yl)ethoxy]-6,7-dihydro-5-oxa-7a-azadibenzo[a,e]azulene-9-carboxylic acid monohydrochloride] came in with a half-maximal inhibitory concentration (IC50) of under 100 nM.
Consider `CN(C)CCOc1cccc2c1OCCn1c-2c(C2CCCCC2)c2ccc(C(=O)O)cc21` [Example 2-463, 12-cyclohexyl-4-(2-dimethylaminoethoxy)-6,7-dihydro-5-oxa-7a-azadibenzo[a,e]azulene-9-carboxylic acid monohydrochloride], for which the IC50 was under 100 nM.
With `O=C(O)c1ccc2c(C3CCCCC3)c3n(c2c1)CCOc1c(CCN2CCCCC2)cccc1-3` [Example 2-464, 12-cyclohexyl-4-[2-(piperidin-1-yl)ethyl]-6,7-dihydro-5-oxa-7a-azadibenzo[a,e]azulene-9-carboxylic acid monohydrochloride], the IC50 is under 100 nM.
For `CC(C)(C)OC(=O)N1CCC(OCCOc2cccc3c2OCCn2c-3c(C3CCCCC3)c3ccc(C(=O)O)cc32)CC1` [Example 2-465, 4-[2-(1-tert-butoxycarbonylpiperidin-4-yloxy)ethoxy]-12-cyclohexyl-6,7-dihydro-5-oxa-7a-azadibenzo[a,e]azulene-9-carboxylic acid], the IC50 was under 100 nM.
Turning to `O=C(O)c1ccc2c(C3CCCCC3)c3n(c2c1)CCOc1c(OCCOC2CCNCC2)cccc1-3` [Example 2-466, 12-cyclohexyl-4-[2-(piperidin-4-yloxy)ethoxy]-6,7-dihydro-5-oxa-7a-azadibenzo[a,e]azulene-9-carboxylic acid monohydrochloride], the IC50 is under 100 nM.
Take `CN1CCC(OCCOc2cccc3c2OCCn2c-3c(C3CCCCC3)c3ccc(C(=O)O)cc32)CC1` [Example 2-467, 12-cyclohexyl-4-[2-(1-methylpiperidin-4-yloxy)ethoxy]-6,7-dihydro-5-oxa-7a-azadibenzo[a,e]azulene-9-carboxylic acid monohydrochloride]: the IC50 is under 100 nM.
In turn, `O=C(O)c1ccc2c(C3CCCCC3)c3n(c2c1)CCOc1c(OCCC2CCN(C4CCCC4)CC2)cccc1-3` [Example 2-468, 12-cyclohexyl-4-[2-(1-cyclopentylpiperidin-4-yl)ethoxy]-6,7-dihydro-5-oxa-7a-azadibenzo[a,e]azulene-9-carboxylic acid monohydrochloride] came in with an IC50 of under 100 nM.
In the case of `CN1CCCC(Oc2cccc3c2OCCn2c-3c(C3CCCCC3)c3ccc(C(=O)O)cc32)C1` (centres unmarked) [Example 2-469, 12-cyclohexyl-4-(1-methylpiperidin-3-yloxy)-6,7-dihydro-5-oxa-7a-azadibenzo[a,e]azulene-9-carboxylic acid monohydrochloride], the IC50 was under 100 nM.
`COCCN1CCCC(Oc2cccc3c2OCCn2c-3c(C3CCCCC3)c3ccc(C(=O)O)cc32)C1` (centres unmarked) [Example 2-470, 12-cyclohexyl-4-[1-(2-methoxyethyl)piperidin-3-yloxy]-6,7-dihydro-5-oxa-7a-azadibenzo[a,e]azulene-9-carboxylic acid monohydrochloride]: the half-maximal inhibitory concentration (IC50) was under 100 nM.
To `O=C(O)c1ccc2c(C3CCCCC3)c3n(c2c1)CCOc1c(OCc2cc(N4CCCC4=O)ccc2N2CCOCC2)cccc1-3` [Example 2-471, 12-cyclohexyl-4-[2-(morpholin-4-yl)-5-(2-oxopyrrolidin-1-yl)benzyloxy]-6,7-dihydro-5-oxa-7a-azadibenzo[a,e]azulene-9-carboxylic acid monohydrochloride] belongs under 100 nM.
The result for `CN1CCC(N(C)CCOc2cccc3c2OCCn2c-3c(C3CCCCC3)c3ccc(C(=O)O)cc32)CC1` [Example 2-472, 12-cyclohexyl-4-{2-[N-methyl-N-(1-methylpiperidin-4-yl)amino]ethoxy}-6,7-dihydro-5-oxa-7a-azadibenzo[a,e]azulene-9-carboxylic acid trihydrochloride] reads under 100 nM; that for `COC(=O)c1ccc2c(C3CCCCC3)c3n(c2c1)CCOc1c(OCC(=O)O)cccc1-3` [Example 2-473, methyl 4-carboxymethoxy-12-cyclohexyl-6,7-dihydro-5-oxa-7a-azadibenzo[a,e]azulene-9-carboxylate], 100 to 1000 nM.
As for `CN(CCN1CCCCC1)c1cccc2c1OCCn1c-2c(C2CCCCC2)c2ccc(C(=O)O)cc21` [Example 2-474, 12-cyclohexyl-4-(N-methyl-N-[2-(piperidin-1-yl)ethyl]amino}-6,7-dihydro-5-oxa-7a-azadibenzo[a,e]azulene-9-carboxylic acid dihydrochloride], the IC50 was under 100 nM.
To `COc1cccc2c1OCCn1c-2c(C2CCCCC2)c2ccc(C(=O)O)cc21` [Example 2-475, 12-cyclohexyl-4-methoxy-6,7-dihydro-5-oxa-7a-azadibenzo[a,e]azulene-9-carboxylic acid] belongs under 100 nM.
Molecule `Nc1cccc2c1OCCn1c-2c(C2CCCCC2)c2ccc(C(=O)O)cc21` [Example 2-476, 4-amino-12-cyclohexyl-6,7-dihydro-5-oxa-7a-azadibenzo[a,e]azulene-9-carboxylic acid] came in with an IC50 of under 100 nM.
`O=C(O)c1ccc2c(C3CCCCC3)c3n(c2c1)CCOc1c-3cccc1[N+](=O)[O-]` [Example 2-477, 12-cyclohexyl-4-nitro-6,7-dihydro-5-oxa-7a-azadibenzo[a,e]azulene-9-carboxylic acid] returned a 50% inhibitory concentration (IC50) of under 100 nM.
The molecule `O=C(O)c1ccc2c(C3CCCCC3)c3n(c2c1)CCOc1c(NCCN2CCCCC2)cccc1-3` [Example 2-478, 12-cyclohexyl-4-[2-(piperidin-1-yl)ethylamino]-6,7-dihydro-5-oxa-7a-azadibenzo[a,e]azulene-9-carboxylic acid dihydrochloride] registered a 50% inhibitory concentration (IC50) of under 100 nM.
`Cc1ccc2c(c1)OCCn1c-2c(C2CCCCC2)c2ccc(C(=O)O)cc21` [Example 2-479, 12-cyclohexyl-3-methyl-6,7-dihydro-5-oxa-7a-azadibenzo[a,e]azulene-9-carboxylic acid] returned an IC50 of under 100 nM.
In turn, `CCN(CCN1CCCCC1)c1cccc2c1OCCn1c-2c(C2CCCCC2)c2ccc(C(=O)O)cc21` [Example 2-480, 12-cyclohexyl-4-{N-ethyl-N-[2-(piperidin-1-yl)ethyl]amino}-6,7-dihydro-5-oxa-7a-azadibenzo[a,e]azulene-9-carboxylic acid dihydrochloride] registered an IC50 of under 100 nM.
The result for `CCCN(CCN1CCCCC1)c1cccc2c1OCCn1c-2c(C2CCCCC2)c2ccc(C(=O)O)cc21` [Example 2-481, 12-cyclohexyl-4-{N-[2-(piperidin-1-yl)ethyl]-N-propylamino}-6,7-dihydro-5-oxa-7a-azadibenzo[a,e]azulene-9-carboxylic acid dihydrochloride] reads under 100 nM; that for `COCCN(CCN1CCCCC1)c1cccc2c1OCCn1c-2c(C2CCCCC2)c2ccc(C(=O)O)cc21` [Example 2-482, 12-cyclohexyl-4-{N-(2-methoxyethyl)-N-[2-(piperidin-1-yl)ethyl]amino}-6,7-dihydro-5-oxa-7a-azadibenzo[a,e]azulene-9-carboxylic acid dihydrochloride], under 100 nM.
To `CN(C)c1cccc2c1OCCn1c-2c(C2CCCCC2)c2ccc(C(=O)O)cc21` [Example 2-483, 12-cyclohexyl-4-dimethylamino-6,7-dihydro-5-oxa-7a-azadibenzo[a,e]azulene-9-carboxylic acid] belongs under 100 nM.
In turn, `O=C(O)c1ccc2c(C3CCCCC3)c3n(c2c1)CCOc1cccc(F)c1-3` [Example 2-484, 12-cyclohexyl-1-fluoro-6,7-dihydro-5-oxa-7a-azadibenzo[a,e]azulene-9-carboxylic acid] had a concentration for half-maximal inhibition (IC50) of under 100 nM.
The molecule `CC(=O)N(CCN1CCCCC1)c1cccc2c1OCCn1c-2c(C2CCCCC2)c2ccc(C(=O)O)cc21` [Example 2-485, 4-{N-acetyl-N-[2-(piperidin-1-yl)ethyl]amino}-12-cyclohexyl-6,7-dihydro-5-oxa-7a-azadibenzo[a,e]azulene-9-carboxylic acid] gave an IC50 of under 100 nM.
